Marks after values point to notes of the source that are not given here.
Assays:
[1] = tested on: K. pneumoniae (NCTC, 10896); test: CBR-gal in a liquid medium, pink coloration over time (Table V); assay type: cell-based; design: key: — signifies a lack of coloration, even after 24 hours
Protocol: (§1) The CBR-gal substrate is tested in a liquid medium, at various concentrations from 0.5 mg/ml to 0.0078 mg/ml. The liquid reaction medium into which the substrate is incorporated is composed of a phosphate buffer, pH 7.4, containing 0.5% of nutrient broth and 0.5% of NaCl. 30 microliters/ml of IPTG are added to the medium for all the substrate concentrations. The strains tested are E. coli (NCTC, 10418), K. pneumoniae (NCTC, 10896), P. rettgeri (NCTC, 7475), E. cloacae (NCTC, 11936), S. marcescens (NCTC, 10211) and S. typhimurium (NCTC, 74), with an inoculum of 0.5 McFarland.

[2] = tested on: S. typhimurium (NCTC, 74); test: as above; assay type: cell-based; design: key: — signifies a lack of coloration, even after 24 hours
Protocol: as §1

E. coli (NCTC, 10418) [3] = test: as above; assay type: cell-based; design: key: — signifies a lack of coloration, even after 24 hours
Protocol: as §1

E. cloacae (NCTC, 11936) [4] = test: as above; assay type: cell-based; design: key: — signifies a lack of coloration, even after 24 hours
Protocol: as §1

[5] = tested on: S. marcescens (NCTC, 10211); test: as above; assay type: cell-based; design: key: — signifies a lack of coloration, even after 24 hours
Protocol: as §1

P. rettgeri (NCTC, 7475) = test: as above; assay type: cell-based; design: key: — signifies a lack of coloration, even after 24 hours
Protocol: as §1

[6] = tested on: K. pneumoniae (NCTC, 10896); test: CBR-gal in Columbia agar (solid medium); assay type: cell-based; settings: 2, 6, 10 and 20 mg/100 ml, 37° C. overnight
Protocol: (§2) The CBR-gal substrate is incorporated into a Columbia agar at the following concentrations: 2, 6, 10 and 20 mg/100 ml, and the medium thus prepared is distributed into dishes. Each dish is inoculated with the following organisms: E. coli (NCTC, 10418), K. pneumoniae (NCTC, 10896), P. rettgeri (NCTC, 7475), E. cloacae (NCTC, 11936), S. marcescens (NCTC, 10211) and S. typhimurium (NCTC, 74). IPTG is incorporated into all these media, at a concentration of 3 mg per 100 ml of Columbia agar. All the dishes are incubated at 37° C. overnight.

E. coli (NCTC, 10418) [7] = test: CBR-gal in Columbia agar (solid medium); assay type: cell-based; settings: 2, 6, 10 and 20 mg/100 ml, 37° C. overnight
Protocol: as §2

E. cloacae (NCTC, 11936) [8] = test: CBR-gal in Columbia agar (solid medium); assay type: cell-based; settings: 2, 6, 10 and 20 mg/100 ml, 37° C. overnight
Protocol: as §2

[9] = tested on: S. marcescens (NCTC, 10211); test: CBR-gal in Columbia agar (solid medium); assay type: cell-based; settings: 2, 6, 10 and 20 mg/100 ml, 37° C. overnight
Protocol: as §2

[10] = tested on: E. coli, K. pneumoniae, P. rettgeri, E. cloacae, S. marcescens and S. typhimurium; assay type: cell-based; settings: Columbia agar, 37° C. overnight
Protocol: as §2

E. coli 115 = test: Influence of the incubation atmosphere on revelation of β-D-galactosidase (Table IV)
E. faecium 255 = test: as above
E. cloacae 061 = test: as above
E. coli 206 = test: as above
S. marcescens 042 = test: as above; settings: 48 H

SMILES: O=c1cc2oc3cc(OC4OC(CO)C(O)C(O)C4O)c(Cl)cc3nc-2c2ccccc12 [CBR-gal, 8-chloro-1,2-benzoresorufin-β-D-galactoside]
- time until pink coloration ([1]; CBR-gal substrate 0.0078 mg/ml): —
- time until pink coloration ([1]; CBR-gal substrate 0.0156 mg/ml): —
- time until pink coloration ([1]; CBR-gal substrate 0.0313 mg/ml): 24 h
- time until pink coloration ([1]; CBR-gal substrate 0.0625 mg/ml): 4 h
- time until pink coloration ([1]; CBR-gal substrate 0.125 mg/ml): 4 h
- time until pink coloration ([1]; CBR-gal substrate 0.25 mg/ml): 2 h
- time until pink coloration ([1]; CBR-gal substrate 0.5 mg/ml): 2 h
- time until pink coloration ([2]; CBR-gal substrate 0.0078 mg/ml): —
- time until pink coloration ([2]; CBR-gal substrate 0.0156 mg/ml): —
- time until pink coloration ([2]; CBR-gal substrate 0.0313 mg/ml): —
- time until pink coloration ([2]; CBR-gal substrate 0.0625 mg/ml): —
- time until pink coloration ([2]; CBR-gal substrate 0.125 mg/ml): —
- time until pink coloration ([2]; CBR-gal substrate 0.25 mg/ml): —
- time until pink coloration ([2]; CBR-gal substrate 0.5 mg/ml): —
- time until pink coloration (E. coli (NCTC, 10418) [3]; CBR-gal substrate 0.0078 mg/ml): —
- time until pink coloration (E. coli (NCTC, 10418) [3]; CBR-gal substrate 0.0156 mg/ml): —
- time until pink coloration (E. coli (NCTC, 10418) [3]; CBR-gal substrate 0.0313 mg/ml): 24 h
- time until pink coloration (E. coli (NCTC, 10418) [3]; CBR-gal substrate 0.0625 mg/ml): 4 h
- time until pink coloration (E. coli (NCTC, 10418) [3]; CBR-gal substrate 0.125 mg/ml): 4 h
- time until pink coloration (E. coli (NCTC, 10418) [3]; CBR-gal substrate 0.25 mg/ml): 2 h
- time until pink coloration (E. coli (NCTC, 10418) [3]; CBR-gal substrate 0.5 mg/ml): 2* hours
- time until pink coloration (E. cloacae (NCTC, 11936) [4]; CBR-gal substrate 0.0078 mg/ml): —
- time until pink coloration (E. cloacae (NCTC, 11936) [4]; CBR-gal substrate 0.0156 mg/ml): —
- time until pink coloration (E. cloacae (NCTC, 11936) [4]; CBR-gal substrate 0.0313 mg/ml): 24 h
- time until pink coloration (E. cloacae (NCTC, 11936) [4]; CBR-gal substrate 0.0625 mg/ml): 4 h
- time until pink coloration (E. cloacae (NCTC, 11936) [4]; CBR-gal substrate 0.125 mg/ml): 4 h
- time until pink coloration (E. cloacae (NCTC, 11936) [4]; CBR-gal substrate 0.25 mg/ml): 2 h
- time until pink coloration (E. cloacae (NCTC, 11936) [4]; CBR-gal substrate 0.5 mg/ml): 2 h
- time until pink coloration ([5]; CBR-gal substrate 0.0078 mg/ml): —
- time until pink coloration ([5]; CBR-gal substrate 0.0156 mg/ml): —
- time until pink coloration ([5]; CBR-gal substrate 0.0313 mg/ml): 24 h
- time until pink coloration ([5]; CBR-gal substrate 0.0625 mg/ml): 24 h
- time until pink coloration ([5]; CBR-gal substrate 0.125 mg/ml): 24 h
- time until pink coloration ([5]; CBR-gal substrate 0.25 mg/ml): 24 h
- time until pink coloration ([5]; CBR-gal substrate 0.5 mg/ml): 24 h
- time until pink coloration (P. rettgeri (NCTC, 7475); CBR-gal substrate 0.0078 mg/ml): —
- time until pink coloration (P. rettgeri (NCTC, 7475); CBR-gal substrate 0.0156 mg/ml): —
- time until pink coloration (P. rettgeri (NCTC, 7475); CBR-gal substrate 0.0313 mg/ml): —
- time until pink coloration (P. rettgeri (NCTC, 7475); CBR-gal substrate 0.0625 mg/ml): —
- time until pink coloration (P. rettgeri (NCTC, 7475); CBR-gal substrate 0.125 mg/ml): —
- time until pink coloration (P. rettgeri (NCTC, 7475); CBR-gal substrate 0.25 mg/ml): —
- time until pink coloration (P. rettgeri (NCTC, 7475); CBR-gal substrate 0.5 mg/ml): —
- coloration of the bacterial colony [6]: pink coloration
- coloration of the bacterial colony (E. coli (NCTC, 10418) [7]): pink coloration
- coloration of the bacterial colony (E. cloacae (NCTC, 11936) [8]): pink coloration
- coloration of the bacterial colony [9]: pink coloration
- optimum concentration to obtain a clearly visible pink coloration without any background noise [10]: around 10 mg/100 ml

SMILES: OC[C@H]1O[C@@H](Oc2c[nH]c3ccc(Br)c(Cl)c23)[C@H](O)[C@@H](O)[C@H]1O [X-Gal, reference compound]
- intensity of coloration (arbitrary scale based on a visual observation) (E. coli 115; 24 H, AE (aerobiosis)): 3*
- intensity of coloration (arbitrary scale based on a visual observation) (E. coli 115; 24 H, CO2): 2
- intensity of coloration (arbitrary scale based on a visual observation) (E. coli 115; 24 H, MAP (microaerophily)): 2
- intensity of coloration (arbitrary scale based on a visual observation) (E. coli 115; 48 H, AE (aerobiosis)): 3
- intensity of coloration (arbitrary scale based on a visual observation) (E. coli 115; 48 H, ANA (anaerobiosis)): 1
- intensity of coloration (arbitrary scale based on a visual observation) (E. coli 115; 48 H, CO2): 2
- intensity of coloration (arbitrary scale based on a visual observation) (E. coli 115; 48 H, MAP (microaerophily)): 2
- intensity of coloration (arbitrary scale based on a visual observation) (E. faecium 255; 24 H, AE (aerobiosis)): 1
- intensity of coloration (arbitrary scale based on a visual observation) (E. faecium 255; 48 H, AE (aerobiosis)): 3
- intensity of coloration (arbitrary scale based on a visual observation) (E. faecium 255; 48 H, CO2): 1
- intensity of coloration (arbitrary scale based on a visual observation) (E. faecium 255; 48 H, MAP (microaerophily)): 1
- intensity of coloration (arbitrary scale based on a visual observation) (E. cloacae 061; 24 H, AE (aerobiosis)): 2
- intensity of coloration (arbitrary scale based on a visual observation) (E. cloacae 061; 24 H, CO2): 2
- intensity of coloration (arbitrary scale based on a visual observation) (E. cloacae 061; 24 H, MAP (microaerophily)): 1
- intensity of coloration (arbitrary scale based on a visual observation) (E. cloacae 061; 48 H, AE (aerobiosis)): 2
- intensity of coloration (arbitrary scale based on a visual observation) (E. cloacae 061; 48 H, ANA (anaerobiosis)): 1
- intensity of coloration (arbitrary scale based on a visual observation) (E. cloacae 061; 48 H, CO2): 2
- intensity of coloration (arbitrary scale based on a visual observation) (E. cloacae 061; 48 H, MAP (microaerophily)): 1
- intensity of coloration (arbitrary scale based on a visual observation) (E. coli 206; 24 H, AE (aerobiosis)): 3
- intensity of coloration (arbitrary scale based on a visual observation) (E. coli 206; 24 H, ANA (anaerobiosis)): 1
- intensity of coloration (arbitrary scale based on a visual observation) (E. coli 206; 24 H, CO2): 3
- intensity of coloration (arbitrary scale based on a visual observation) (E. coli 206; 24 H, MAP (microaerophily)): 1
- intensity of coloration (arbitrary scale based on a visual observation) (E. coli 206; 48 H, AE (aerobiosis)): 3
- intensity of coloration (arbitrary scale based on a visual observation) (E. coli 206; 48 H, ANA (anaerobiosis)): 1
- intensity of coloration (arbitrary scale based on a visual observation) (E. coli 206; 48 H, CO2): 3
- intensity of coloration (arbitrary scale based on a visual observation) (E. coli 206; 48 H, MAP (microaerophily)): 1
- intensity of coloration (arbitrary scale based on a visual observation) (S. marcescens 042; AE (aerobiosis)): 1
- intensity of coloration (arbitrary scale based on a visual observation) (S. marcescens 042; CO2): 2
- intensity of coloration (arbitrary scale based on a visual observation) (S. marcescens 042; MAP (microaerophily)): 1
